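How tested: cells in 96-well plates exposed to compound for 48 hours at five concentrations. TGI denotes the concentration required for complete inhibition of growth.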 Bounds are passed on as bounds.

Data on 25 compounds can be found in PubChem BioAssay (NCI).

What all share (assay): DTP human tumour cell line panel, 48 h
Experiment [1] relates to M14 melanoma.
The subject of experiment [2] is SNB-19 CNS.
The subject of experiment [3] is COLO 205 colon.
Experiment [4] deals with KM12 colon.
In experiment [5] the test system is SK-OV-3 ovarian.
Experiment [6] concerns MDA-N.
For experiment [7], the system named is SN12C renal.
For experiment [8], the system named is HS 578T breast.
Experiment [9] deals with CCRF-CEM leukemia.
For experiment [10], the system named is SF-268 CNS.
Experiment [11] has as its system HT29 colon.

For the compound `CC1CC(N)=Nc2ccccc2N1` (stereo not given), the concentration for total growth inhibition (TGI) in experiment [1], in [2], in experiment [3], in experiment [4], in experiment [5] and in experiment [6] was greater than 100 µM in each case. Besides, the TGI in experiment [7], in experiment [8], in experiment [9], in experiment [10] and in experiment [11] was greater than 100 µM in each case.

Take `C=C1CC(c2ccc(OCCCN3C(=O)c4ccccc4C3=O)c(OC)c2)OC1=O` (stereo not given): the TGI (usually the concentration giving total growth inhibition) in experiment [1] came to 17.3 µM; in [2], 28 µM; in [3], 5.33 µM; in experiment [4], 28.2 µM; in [5], 29.4 µM; in [6], 16.4 µM. Moreover, the TGI in experiment [7] was found to be 25.4 µM; in [8], 32.4 µM; in experiment [9], 3.79 µM; in experiment [10], 23 µM; in experiment [11], 13.3 µM.

Turning to `CCc1nc(N)nc(N)c1-c1ccc2nn(-c3ccccc3)[n+]([O-])c2c1`, the TGI in [1] is 18.8 µM; in experiment [2] it was greater than 70.4 µM; in experiment [3], 22.3 µM; in [4], 41 µM; in [5] it was greater than 69.3 µM; in experiment [6] it was 18.8 µM. For the same compound, the TGI in experiment [7] is 24.4 µM; in [8], 52.3 µM; in experiment [9], 36.8 µM; in [10] it was 31.5 µM; in [11], 20.2 µM.

For `O=[N+]([O-])c1ccc(/C=N/n2c(CO)nc3ccccc32)o1`, the TGI in experiment [1] was found to be 16.7 µM; in experiment [2], 30.7 µM; in experiment [3], 10.6 µM; in experiment [4], 15.4 µM; in experiment [5], 71.9 µM; in experiment [6] it was 13.3 µM. In addition, the TGI was determined as 18.1 µM in [7]; 35.6 µM in experiment [8]; 36.8 µM in experiment [9]; 22.7 µM in experiment [10]; 10.3 µM in [11].

As to `CCC1(CC)SCc2nc3ccccc3n21`, the TGI is 70.5 µM in experiment [1]; greater than 100 µM in experiment [2]; 40.2 µM in [3]; 61.5 µM in experiment [4]; greater than 100 µM in experiment [5]; greater than 100 µM in experiment [6]. For the same compound, the TGI in [7] is greater than 100 µM; in [8], 82.9 µM; in experiment [9] it was greater than 100 µM; in experiment [10], greater than 100 µM; in experiment [11], greater than 100 µM.

For `CC(=O)NC1C(OCc2ccccc2)OC(CO)C(O)C1OC(C)C(=O)NC(C)C(=O)NC(CCC(=O)NCCCNc1c2ccccc2nc2cccc([N+](=O)[O-])c12)C(N)=O` (stereo not given), the TGI was 3.97 µM in experiment [1]; greater than 100 µM in experiment [2]; 2.34 µM in experiment [3]; 23.5 µM in experiment [4]; 34.7 µM in [5]; 2.77 µM in [6]. Further, the TGI in experiment [7] is 11 µM; in experiment [8], 40.4 µM; in experiment [9], greater than 100 µM; in [10], 6.32 µM; in experiment [11] it was greater than 100 µM.

As for `C=CC(Br)(CBr)CCC(Cl)C(C)C` (stereo not given), the TGI came to 3.18 µM in experiment [1]; 6.82 µM in experiment [2]; 10.2 µM in [3]; 2.95 µM in experiment [4]; 18.6 µM in [5]; 2.8 µM in [6]. Besides, the TGI in experiment [7] stood at 3.19 µM; in experiment [8], 8.01 µM; in experiment [9], 2.64 µM; in experiment [10], 3.07 µM; in experiment [11] it was 3.17 µM.

In the case of `CCCCCCCCCCCCCCCCCCNc1ccn(C2OC(COP(=O)(O)OCC3OC(n4cc(C)c(=O)[nH]c4=O)CC3O)C(O)C2O)c(=O)n1` (stereo not given), the TGI was found to be 30.7 µM in [1]; 29.8 µM in experiment [2]; 28.1 µM in experiment [3]; 36.4 µM in experiment [4]; 31.8 µM in experiment [5]; 33.1 µM in experiment [6]. Further, the TGI is 33.4 µM in [7]; 42.4 µM in [8]; 23.6 µM in experiment [9]; 32.4 µM in experiment [10]; 30.4 µM in [11].

Take `COc1cc(Nc2cnc3cc(F)c(F)cc3n2)cc(OC)c1OC`: the TGI in experiment [1], in [2], in experiment [3], in [4], in [5] and in [6] was greater than 100 µM each time. Moreover, the concentration for total growth inhibition (TGI) in experiment [7], in experiment [8], in [9], in [10] and in experiment [11] was greater than 100 µM in each case.

In the case of `COC(=O)C(C)(NC(=O)C(CC(=O)OC(C)(C)C)NC(=O)OC(C)(C)C)c1ccccc1` (stereo not given), the TGI in [1], in experiment [2], in [3], in experiment [4], in experiment [5] and in experiment [6] was greater than 100 µM each time. For the same compound, the TGI in [7], in experiment [8], in [9], in experiment [10] and in [11] was greater than 100 µM each time.

`O=Cc1ccc2c(c1)CC1(C2)Cc2ccc3c(c2C1)CCC3` (stereo not given): the TGI amounted to 21.3 µM in experiment [1]; 21 µM in [2]; 43.7 µM in [3]; 33.1 µM in experiment [4]; 45.1 µM in experiment [5]; 4.85 µM in experiment [6]. The TGI in experiment [7] was 23.7 µM; in experiment [8], 21.5 µM; in experiment [9] it was 21.1 µM; in experiment [10], 41.9 µM; in [11], 36.8 µM.

In the case of `C=C1C[C@@H]2O[C@H]3[C@H]4[C@@H](C[C@@H](C)[C@@H](OC(C)=O)[C@H]42)[C@@H](C)CO[C@@]3(C)[C@H](OC(C)=O)C[C@H]1O`, the TGI in [1], in [2], in experiment [3], in [4], in experiment [5] and in experiment [6] was greater than 100 µM in each case. In addition, the TGI in [7] is greater than 100 µM; in [8] it was greater than 100 µM; in [9], 49.5 µM; in experiment [10] it was greater than 100 µM; in experiment [11], greater than 100 µM.

As to `COCCOCc1nc(C#N)c(N)o1`, the TGI in experiment [1], in [2], in experiment [3], in [4], in [5] and in experiment [6] was greater than 100 µM throughout. Moreover, the TGI in [7], in [8], in experiment [9], in [10] and in experiment [11] was greater than 100 µM in each case.

As to `O=[N+]([O-])c1cc2oc(COc3ccccc3)nc2cc1Cl`, the TGI in experiment [1] was 43.5 µM; in experiment [2], greater than 100 µM; in [3] it was 36.6 µM; in experiment [4], 51.3 µM; in experiment [5] it was 59.9 µM; in [6], 69.6 µM. Further, the TGI is 65.1 µM in [7]; greater than 100 µM in experiment [8]; greater than 100 µM in experiment [9]; greater than 100 µM in experiment [10]; greater than 100 µM in experiment [11].

In the case of `COc1ccc2nc3ccc(OC)cc3c(S(=O)CCCl)c2c1` (stereo not given), the TGI in experiment [1] was 15.3 µM; in experiment [2], greater than 59.3 µM; in experiment [3], 3.13 µM; in experiment [4], 37.3 µM; in experiment [5], 40.2 µM; in [6] it was 7.58 µM. In addition, the TGI in experiment [7] was 3.72 µM; in [8], 6.02 µM; in experiment [9], greater than 23.8 µM; in [10] it was 28.2 µM; in [11], 4.39 µM.

As for `NC(Cc1cccc([N+](=O)[O-])c1)C(=O)O` (stereo not given), the TGI in experiment [1], in experiment [2], in experiment [3], in [4], in experiment [5] and in experiment [6] was greater than 100 µM throughout. In addition, the TGI in experiment [7], in [8], in experiment [9], in [10] and in experiment [11] was greater than 100 µM in each case.

Consider `CCOC(=O)C1=CC(C)(C(=O)OCC)Nc2c(nc(OC)n(C)c2=O)N1` (stereo not given), for which the TGI in experiment [1], in experiment [2], in experiment [3], in experiment [4], in experiment [5] and in experiment [6] was greater than 10 µM in each case. Moreover, the TGI in [7], in experiment [8], in [9], in [10] and in [11] was greater than 10 µM each time.

`NNC(N)Nc1ccccc1` (stereo not given): the TGI in [1], in experiment [2], in [3], in experiment [4], in experiment [5] and in [6] was greater than 100 µM each time. For the same compound, the TGI in [7], in experiment [8], in [9], in [10] and in experiment [11] was greater than 100 µM each time.

Take `COc1ccc(C(=O)Sc2c(-c3ccccc3)c(=O)n(-c3ccccc3)c(=S)n2-c2ccccc2)cc1`: the TGI in experiment [1], in [2], in experiment [3], in experiment [4], in [5] and in experiment [6] was greater than 100 µM in each case. Besides, the TGI in experiment [7], in experiment [8], in experiment [9], in experiment [10] and in experiment [11] was greater than 100 µM each time.

On to `Nc1nc(Cl)c(N)c(NC23CC4CC(CC(C4)C2)C3)n1`, for which the TGI was 3.02 µM in [1]; 3.42 µM in [2]; 3.13 µM in [3]; 3.67 µM in [4]; 17.4 µM in experiment [5]; 3.31 µM in experiment [6]. Besides, the TGI in experiment [7] was 3.32 µM; in experiment [8] it was greater than 100 µM; in [9], 5 µM; in [10], greater than 20.5 µM; in [11], 3.42 µM.

With `NC(N)=NCCN=C(N)N`, the TGI in experiment [1], in [2], in [3], in experiment [4], in experiment [5] and in experiment [6] was greater than 100 µM each time. Further, the TGI in experiment [7], in experiment [8], in experiment [9], in experiment [10] and in experiment [11] was greater than 100 µM each time.

`C[C@]12CC[C@H](O)CC1=CC[C@@H]1[C@@H]2CC[C@]2(C)C(=O)[C@@H](N3CCOCC3)C[C@@H]12`: the TGI in [1], in [2], in [3], in experiment [4], in experiment [5] and in experiment [6] was greater than 100 µM each time. Further, the TGI in experiment [7], in experiment [8], in experiment [9], in [10] and in [11] was greater than 100 µM each time.

Consider `Oc1ccc2ccccc2c1/C=C/c1ccc2c(Br)cc(Br)c(O)c2n1`, for which the TGI came to 26.5 µM in experiment [1]; 25.1 µM in experiment [2]; 21.9 µM in experiment [3]; 30.9 µM in experiment [4]; 28.9 µM in experiment [5]; 26.7 µM in experiment [6]. Further, the TGI in experiment [7] was found to be 20.9 µM; in experiment [8] it was 49.4 µM; in experiment [9], 15.6 µM; in experiment [10] it was 21.8 µM; in experiment [11] it was 41.4 µM.

With `COC(=O)Cc1cc(O)c(C/C=C(\C)CC/C=C(\C)C(O)C(=O)C=C(C)C)cc1O` (stereo not given), the TGI is 64.8 µM in experiment [1]; 86 µM in experiment [2]; 57.7 µM in experiment [3]; 43.2 µM in experiment [4]; 78.8 µM in experiment [5]; greater than 100 µM in experiment [6]. Moreover, the TGI in experiment [7] was 58 µM; in experiment [8], greater than 100 µM; in experiment [9] it was 10.3 µM; in experiment [10] it was 40.6 µM; in [11] it was 61.3 µM.

As to `O=C1N=c2ccccc2=C1c1c(O)[nH]c2ccccc12`, the total growth inhibition concentration (TGI) in experiment [1] is greater than 100 µM; in [2], 67.4 µM; in experiment [3], greater than 100 µM; in experiment [4] it was greater than 100 µM; in experiment [5], greater than 100 µM; in experiment [6] it was greater than 100 µM. Also, the TGI is 51.5 µM in [7]; greater than 100 µM in [8]; greater than 100 µM in [9]; greater than 100 µM in experiment [10]; 17.8 µM in experiment [11].
